The source of these data is patent publication US9663478B2, “Benzotriazine oxides as drugs targeting Mycobacterium tuberculosis” (priority 2011, dated 2017).

Structures are written as SMILES. Values after ≈ are worked out from the molar mass of the structure shown. A value given as a limit tells only on which side of the number the result lay.

The test system of one series is H37Rv. As to the kind of experiment: MIC H37Rv (Table E1, Additional BTO Activity Data). In kind it is cell-based. The settings on record: Mycobacterium tuberculosis.
The subject of the next series is Vero cells. Description: Cytotoxicity against Vero cells (Cell Titer-Glo). The settings on record: 72 h; Tables 1-4 and text.
The next series deals with NRP Mtb H37Rv cells. Description: Low-oxygen recovery assay (LORA) MIC. In kind it is cell-based, Mycobacterium tuberculosis. The settings on record: for MIC: Mycobacterium tuberculosis, H37RV, NRP Mtb, Tables 1-4 and text, read-out: LORA MIC - ITR; for LORA MIC: Tables P1, P2, non-replicating M. tuberculosis.
Series [1] deals with Mtb H37Rv. Description: TB MIC - ITR (UIC), Institute for Tuberculosis Research. As to conditions: for MIC: Mycobacterium tuberculosis, H37RV, Tables 1-4, read-out: TB MIC - ITR; for TB MIC - UIC: Tables P1, P2. It is filed as cell-based, Mycobacterium tuberculosis.
The subject of series [2] is Mtb H37Rv. Description: TB MIC - SRI, resazurin-based microplate assay. In kind it is cell-based, Mycobacterium tuberculosis. The settings on record: Mycobacterium tuberculosis, H37RV, read-out: TB MIC - SRI.
A short description of series [3]: MP MTT % viable (Table E1). The settings on record: MP (so in the source).
The test system of a further series is INH-r. Description: MIC INH-r (Table E1). In kind it is cell-based.
Another series has as its system RMP-R. As to the kind of experiment: MIC RMP-R (Table E1). It is filed as cell-based.
In the next series the test system is OFX-R. As to the kind of experiment: MIC OFX-R (Table E1). It is filed as cell-based.
The next series in a line: in vitro. As to conditions: African green monkey, VERO Tox (CC50).

On to `[O-][n+]1nc(NC2(c3ccc(F)cc3)CC2)[n+]([O-])c2cc3c(cc21)CCC3` [Cmpd 7], for which, in the series on H37Rv, 17.6 mg/L (≈ 49.9 µM) was the least that counted as inhibitory (MIC).

`Cc1ncc([N+](=O)[O-])n1CCO` [Metronidazole, reference compound]: the “Vero Tox CC50” value in the series on Vero cells is over 16 mg/L. The MIC was 11 mg/L (≈ 64.3 µM) in the series with NRP Mtb H37Rv cells; over 32 mg/L with Mtb H37Rv [1]; over 10 mg/L in the series with Mtb H37Rv [2] (Tables 1-4 and text).

Turning to `CCNc1n[n+]([O-])c2c(Cl)c(OC)ccc2[n+]1[O-]` [Cmpd 6], in the series on H37Rv, the lowest concentration to inhibit growth (MIC) was 0.4 mg/L (≈ 1.48 µM).

As to `[O-][n+]1nc(N2CCC(c3ccccc3F)C2)[n+]([O-])c2cc3c(cc21)CCC3` (stereo not shown) [Cmpd 13], in [3], the viability at 0.01 ug/ml was determined as 161%. Besides, in [3], the viability at 0.1 ug/ml was 123%. Moreover, the viability at 1 ug/ml in series [3] stood at 102%. Also, the MIC amounted to 0.098 mg/L (≈ 0.267 µM) in the series on INH-r, 0.098 mg/L (≈ 0.267 µM) in the series on H37Rv, 0.049 mg/L (≈ 0.134 µM) in the series with RMP-R and 0.024 mg/L (≈ 0.0655 µM) in the series on OFX-R.

`CC(C)(Nc1n[n+]([O-])c2cc3c(cc2[n+]1[O-])CCC3)c1ccc(F)cc1` [Cmpd 5] yielded an MIC against H37Rv of 4.4 mg/L (≈ 12.4 µM).

Turning to `COc1cccc(C2CCN(c3n[n+]([O-])c4cc5c(cc4[n+]3[O-])CCC5(C)C)C2)c1OC` (stereo not shown) [Cmpd 8], the MIC with H37Rv is 0.7 mg/L (≈ 1.6 µM).

For the compound `COc1cccc(C2CCN(c3n[n+]([O-])c4cc5c(cc4[n+]3[O-])CCC5)C2)c1OC` (stereo not shown) [Cmpd 18], the viability at 0.01 ug/ml in series [3] was found to be 85%. Moreover, the viability at 0.1 ug/ml in series [3] amounted to 55%. Moreover, the viability at 1 ug/ml in series [3] was found to be 33%. The minimal inhibitory concentration (MIC) worked out at 0.195 mg/L (≈ 0.477 µM) against INH-r, 0.391 mg/L (≈ 0.957 µM) against H37Rv, 0.391 mg/L (≈ 0.957 µM) against RMP-R and 0.049 mg/L (≈ 0.12 µM) in the series with OFX-R.

In the case of `[O-][n+]1nc(N2CCC(c3ccccc3Cl)C2)[n+]([O-])c2cc3c(cc21)CCC3` (stereo not shown) [Cmpd 15], the viability at 0.01 ug/ml in series [3] turned out to be 102%. The viability at 0.1 ug/ml in series [3] stood at 75%. Also, the viability at 1 ug/ml in [3] was found to be 58%. In addition, the minimum inhibitory concentration (MIC) against INH-r stood at 0.098 mg/L (≈ 0.256 µM); against H37Rv, 0.098 mg/L (≈ 0.256 µM); against RMP-R, 0.098 mg/L (≈ 0.256 µM); against OFX-R it was 0.024 mg/L (≈ 0.0627 µM).

For the compound `CCC(C)Nc1n[n+]([O-])c2ccccc2[n+]1[O-]` (stereo not shown) [SRI-012262], the 50% cytotoxic concentration (CC50) at 72 h in “in vitro” turned out to be 21.6 mg/L (≈ 92.2 µM). The compound also registered an LORA MIC in the series on NRP Mtb H37Rv cells of 1.28 mg/L. Also, the TB MIC - UIC in the series on Mtb H37Rv [1] amounted to 2 mg/L. In addition, the minimum inhibitory concentration (MIC) with Mtb H37Rv [2] (Tables P1-P3) was determined as 2.5 mg/L (≈ 10.7 µM).

As for `[O-][n+]1nc(N2CCC(c3ccc(F)cc3)C2)[n+]([O-])c2cc3c(cc21)CCC3` (stereo not shown) [Cmpd 17], the viability at 0.01 ug/ml in [3] stood at 104%. The viability at 0.1 ug/ml in [3] amounted to 82%. Also, the viability at 1 ug/ml in series [3] came out at 69%. Moreover, the minimum inhibitory concentration (MIC) was found to be 0.049 mg/L (≈ 0.134 µM) against INH-r, 0.098 mg/L (≈ 0.267 µM) against H37Rv, 0.027 mg/L (≈ 0.0737 µM) with RMP-R and 0.049 mg/L (≈ 0.134 µM) in the series with OFX-R.

Take `CN(Cc1ccc(F)cc1)c1n[n+]([O-])c2cc3c(cc2[n+]1[O-])CCC3` [Cmpd 14]: the viability at 0.01 ug/ml in series [3] stood at 112%. Moreover, in series [3], the viability at 0.1 ug/ml was determined as 82%. For the same compound, in [3], the viability at 1 ug/ml came out at 1%. Further, the minimal inhibitory concentration (MIC) worked out at 0.098 mg/L (≈ 0.288 µM) in the series on INH-r, 0.195 mg/L (≈ 0.573 µM) against H37Rv, 0.049 mg/L (≈ 0.144 µM) with RMP-R and 0.098 mg/L (≈ 0.288 µM) against OFX-R.

As for `O=C(Cn1ccnc1[N+](=O)[O-])NCCO` [Etanidazole, reference compound], in the series with Vero cells, the “Vero Tox CC50” value was over 16 mg/L. In addition, the MIC is 26 mg/L (≈ 121 µM) in the series on NRP Mtb H37Rv cells; over 32 mg/L in the series with Mtb H37Rv [1]; over 10 mg/L with Mtb H37Rv [2] (Tables 1-4 and text).

Regarding `CCC(COC)Nc1n[n+]([O-])c2cc(F)ccc2[n+]1[O-]` (stereo not shown) [Compound 15ai, 7-fluoro-3-((1-methoxybutan-2-yl)amino)benzo[e][1,2,4]triazine 1,4-dioxide], the CC50 at 72 h in the series “in vitro” came to 6.3 mg/L (≈ 22.3 µM). Also, the MIC with NRP Mtb H37Rv cells is 1.9 mg/L (≈ 6.73 µM); with Mtb H37Rv [1], 2 mg/L (≈ 7.09 µM); in the series on Mtb H37Rv [2] (Tables 1-4 and text), 5 mg/L (≈ 17.7 µM).

In the case of `CC(C)C(C)Nc1n[n+]([O-])c2ccccc2[n+]1[O-]` (stereo not shown) [SRI-012267], the CC50 at 72 h in the series “in vitro” was found to be 21 mg/L (≈ 84.6 µM). For the same compound, in the series on NRP Mtb H37Rv cells, the LORA MIC is 0.98 mg/L. Also, the TB MIC - UIC in the series with Mtb H37Rv [1] is 1.93 mg/L. Further, the minimal inhibitory concentration (MIC) in the series on Mtb H37Rv [2] (Tables P1-P3) is 5 mg/L (≈ 20.1 µM).

With `CN(Cc1ccccn1)c1n[n+]([O-])c2cc3c(cc2[n+]1[O-])CCC3` [Cmpd 2], 1 mg/L (≈ 3.09 µM) was the least that counted as inhibitory in the series with H37Rv (MIC).

In the case of `CCC(COC)Nc1n[n+]([O-])c2ccccc2[n+]1[O-]` (stereo not shown) [SRI-012272], the half-maximal cytotoxic concentration (CC50) at 72 h in “in vitro” came to 50 mg/L (≈ 189 µM). Also, the LORA MIC in the series with NRP Mtb H37Rv cells is 4.87 mg/L. The same compound registered a TB MIC - UIC with Mtb H37Rv [1] of 6.57 mg/L. In addition, the minimum inhibitory concentration (MIC) with Mtb H37Rv [2] (Tables P1-P3) amounted to 10 mg/L (≈ 37.8 µM).
